Assays:
[1] = Metabolic stability assay in rat liver microsomes; assay type: in vitro ADME; settings: 1 μM compound, 0.5 mg/ml microsomal protein, 37° C.; for half-life at 1 µM: rat, liver microsomes, read-out: Metabolic stability half-life (T1/2, min, rat liver microsome)
Procedure: The metabolic stability of the compounds was evaluated in incubation with rat liver microsomes.

[2] = test system: cultured mammalian cells, the NIH-3T3 cells, C2C12 cells, and other mammalian cell lines; assay: Mitochondrial membrane potential (MMP) assay, TMRE (or DilC1(5)) staining, related to OCR induction; assay type: cell-based; settings: ratio of concentration leading to 10% MMP retention (90% MMP loss, TMRE) to minimal concentration leading to OCR increase
Procedure: Mitochondrial membrane potential assay was performed using the standard TMRE (tetramethylrhodamine ethyl ester) staining method with cultured mammalian cells, the NIH-3T3 cells, C2C12 cells, and other mammalian cell lines. Cells were seeded in 6-well plates and cultured in DMEM medium supplemented with 10% fetal bovine serum and 2 mM glutamine. Cells were allowed to grow to the logarithmic growth phase prior to experiments. The cells were treated with each individual compound at various concentrations for two hours, followed by staining with TMRE at a final concentration of 100 nM for 15 minutes. The cells were then washed once with PBS, and examined under fluorescence microscopy. Cells treated with various concentrations of niclosamide ethanolamine were used as a positive control.
In some examples, mitochondrial membrane potential was measured with DilC1(5) staining. Briefly, DilC1(5) was added to the cells to 50 nM final concentration and the cells were incubated at 37° C., 5% CO2, for 15 to 30 minutes. Cells were washed once by adding 2 mL of warm phosphate-buffered saline (PBS). Mitochondrial staining was determined by fluorescence microscopy with 633 nm excitation using standard filters for far-red emission.
Using the ratio between C10% TMRE (the concentration at which 10% MMP remains, i.e. 90% MMP is lost) and Cmin-OCR (the concentration at which minimal OCR induction is observed), we categorized the MMP-retaining uncouplers into two groups.

[3] = test system: high-fat diet (HFD)-induced diabetic mouse model; assay: Efficacy in high-fat diet (HFD)-induced diabetic/fatty liver mouse model; assay type: in vivo; settings: Mus musculus; HFD model, oral daily gavage; read-out: Efficacious dosage to reduce blood glucose in mouse models, oral daily gavage
Procedure: For HFD induced diabetic mouse model, C57Bl6 mice (male, n=6) were induced to obese and diabetic conditions by feeding high-fat diet (HFD, 60% fat calories, Research Diet, Inc. New Brunswick, NJ) for 3-4 months. […] During the 3-week period, the mice continued feeding HFD. […] The blood glucose levels were measured after an overnight fast, plasma insulin levels were tested after 5-6 hours fast, and the glycated HbA1c levels were determined in whole blood samples.
FIG. 15C and FIG. 15D show liver sections from mice fed HFD following 3 weeks of treatment with Compounds 25 and 64, respectively (P.O. dosing of 5 mg/kg, by daily gavage).
Experiments were similarly performed with other compounds, in either high-fat diet induced diabetes and fatty liver models, or in db/db mouse model, or in both, by daily oral gavage administration with low dosages.

[4] = PO pharmacokinetic study, oral exposure (Example B3); assay type: in vivo; settings: blood, po; for AUC at 24 h: 10 mg/kg gavage
Procedure: The blood concentration of the compound was then determined at 0 (pre-dosing), 5 min, 15 min, 30 min, 1 hr, 2 hr, 4 hr, 8 hr, 24 hr time points by LC-MS/MS analysis (See Tables 1 and 2, vide supra).

C2C12 cells = assay: Mitochondrial uncoupling activity by oxygen consumption rate (OCR) assay, Seahorse, in presence of oligomycin; assay type: cell-based, mouse; settings: for minimal effective concentration: Mus musculus, C2C12, in the presence of oligomycin 2.5 μM, read-out: COCR-min: minimal concentration increasing OCR in the presence of oligomycin
Procedure: By definition, mitochondrial uncoupling is the decoupling of mitochondrial electron transport chain activity (mitochondrial oxidation) from ATP synthesis by mitochondrial ATP synthase. Technically, mitochondrial uncoupling activity is defined by the ability of a chemical compound to induce oxygen consumption of cells or isolated mitochondria in the presence of a mitochondrial ATP synthase inhibitor such as oligomycin. Accordingly, mitochondrial uncoupling activity was determined by oxygen consumption rate assay with a Seahorse XF96 or a Seahorse XF24 instrument following the vendor's instruction, using mouse myoblast C2C12 cells grown in a medium containing 10% fetal bovine serum. OCR was measured stepwise under the following conditions: first under normal growth conditions; then. OCR was measured after oligomycin was added to reach a final concentration of 2.5 μM); then OCR was measured after the compound was further added at varying concentrations. Finally, rotenone and antimycin A were added to confirm that the measurement was mitochondrial oxygen consumption (rotenone and […] mitochondrial electron transport chain inhibitors).
COCR-min the minimal concentration required for each compound to induce OCR in the presence of oligomycin, of disclosed compounds, was also determined by varying the final concentration of the compound added to the Seahorse OCR analysis experiment as described above (FIG. 2, varying testing compound concentration). Table 8 summarizes the mitochondrial uncoupling activity of disclosed compounds, as represented by COCR-min.

| SMILES | C10%TMRE/Cmin-OCR [2] | further results |
| --- | --- | --- |
| CN(C)Cc1cc(Cl)cc(C(=O)Nc2nc3ccc(C(F)(F)F)cc3s2)c1O |  | half-life at 1 µM [1]: 14.7 h |
| CN(C)Cc1cc(Cl)cc(C(=O)Nc2nc3ccc(OC(F)(F)F)cc3s2)c1O |  | Metabolic stability half-life (T1/2, min, rat liver microsome) [1]: ∞ |
| O=C(Nc1nc2ccc(C(F)(F)F)cc2s1)c1cc(Cl)cc(CN2CCOCC2)c1O |  | half-life at 1 µM [1]: 1.5 h |
| O=C(Nc1ccc(C(F)(F)F)cc1Cl)c1cc(Cl)ccc1O | [drawing 351] |  |
| O=C(Nc1ccc(C(F)(F)F)nc1)c1cc(Cl)ccc1O | [drawing 354] |  |
| O=C(Nc1nc2ccc(C(F)(F)F)cc2s1)c1cc(Cl)cc(C2CCCO2)c1O (stereo not drawn) [Compound 15, 5-chloro-2-hydroxy-3-(tetrahydrofuran-2-yl)-N-(6-(trifluoromethyl)benzo[d]thiazol-2-yl)benzamide] |  | minimal effective dose [3]: 2.5 mg/kg; AUC at 24 h [4]: > 120 µg·h/mL; minimal effective concentration (C2C12 cells): < 5 µM |
| N#CC1CCN(Cc2cc(Cl)cc(C(=O)Nc3nc4ccc(C(F)(F)F)cc4s3)c2O)C1 (stereo not drawn) [Compound 36, 5-chloro-3-((3-cyanopyrrolidin-1-yl)methyl)-2-hydroxy-N-(6-(trifluoromethyl)benzo[d]thiazol-2-yl)benzamide] | ~36 | minimal effective concentration (C2C12 cells): < 5 µM |
| CS(=O)(=O)C1CCN(Cc2cc(Cl)cc(C(=O)Nc3nc4ccc(C(F)(F)F)cc4s3)c2O)C1 (stereo not drawn) [Compound 37, 5-chloro-2-hydroxy-3-((3-(methylsulfonyl)pyrrolidin-1-yl)methyl)-N-(6-(trifluoromethyl)benzo[d]thiazol-2-yl)benzamide] | ~37 | minimal effective concentration (C2C12 cells): > 10 µM |
| COCCOCc1cc(F)cc(C(=O)Nc2nc3ccc(C(F)(F)F)cc3s2)c1O [Compound 43] | ~43 | minimal effective concentration (C2C12 cells): < 5 µM |
| COCCOCc1cc(C(F)(F)F)cc2sc(NC(=O)c3cc(Cl)cc(CN4CCCCC4)c3O)nc12 [Compound 66, 5-chloro-2-hydroxy-N-(4-((2-methoxyethoxy)methyl)-6-(trifluoromethyl)benzo[d]thiazol-2-yl)-3-(piperidin-1-ylmethyl)benzamide] |  | AUC at 24 h [4]: 30 to 60 µg·h/mL; minimal effective concentration (C2C12 cells): < 5 µM |
| COCCN(CCOC)Cc1cc(Cl)cc(C(=O)Nc2nc3c(COC)cc(C(F)(F)F)cc3s2)c1O [Compound 69, 3-((bis(2-methoxyethyl)amino)methyl)-5-chloro-2-hydroxy-N-(4-(methoxymethyl)-6-(trifluoromethyl)benzo[d]thiazol-2-yl)benzamide] |  | AUC at 24 h [4]: 10 to 30 µg·h/mL; minimal effective concentration (C2C12 cells): < 5 µM; effect on oxygen consumption rate (OCR) (C2C12 cells; in words): increase OCR in the presence of oligomycin |
| Cc1cc(Cl)cc(C(=O)Nc2nc3c(COCc4ccc(F)cc4)cc(C(F)(F)F)cc3s2)c1O [Compound 83, 5-chloro-N-(4-(((4-fluorobenzyl)oxy)methyl)-6-(trifluoromethyl)benzo[d]thiazol-2-yl)-2-hydroxy-3-methylbenzamide] | ~83 | minimal effective concentration (C2C12 cells): < 5 µM |
| Cc1cc(Cl)cc(C(=O)Nc2nc3c(CN4CCN(C)CC4)cc(C(F)(F)F)cc3s2)c1O [Example 78, 5-chloro-2-hydroxy-3-methyl-N-(4-((4-methylpiperazin-1-yl)methyl)-6-(trifluoromethyl)benzo[d]thiazol-2-yl)benzamide] |  | AUC(0-t) at 24 h ([4]; 10 mg/kg, 24 hr): 58.4 µg·h/mL; AUC at 24 h [4]: 30 to 60 µg·h/mL; minimal effective concentration (C2C12 cells): < 5 µM |
| COc1cc(Cl)cc(C(=O)Nc2nc3ccc(C(F)(F)F)cc3s2)c1O [Example 97, 5-chloro-2-hydroxy-3-methoxy-N-(6-(trifluoromethyl)benzo[d]thiazol-2-yl)benzamide] |  | AUC at 24 h [4]: 10 to 30 µg·h/mL; minimal effective concentration (C2C12 cells): < 5 µM |
| COCCN(CCOC)Cc1cc(Cl)cc(C(=O)Nc2nc3ccc(C(F)(F)F)cc3s2)c1O [drawing 263] |  | half-life at 1 µM [1]: 0.467 h |
| O=C(Nc1nc2ccc(C(F)(F)F)cc2s1)c1cc(Cl)cc(CN2CCCCC2)c1O [drawing 264] |  | half-life at 1 µM [1]: 1.53 h |
| O=C(Nc1nc2ccc(C(F)(F)F)cc2s1)c1cc(Cl)ccc1O [drawing 300] | [drawing 300] |  |

| SMILES | C10%TMRE/Cmin-OCR [2] | further results |
| --- | --- | --- |
| O=C(Nc1nc2ccc(C(F)(F)F)cc2s1)c1cc(Cl)ccc1O [drawing 303] | [drawing 303] |  |
| O=C(Nc1nc2ccc(C(F)(F)F)cc2s1)c1cc(Cl)ccc1O [drawing 306] | [drawing 306] |  |
| O=C(Nc1nc2ccc(C(F)(F)F)cc2s1)c1cc(Cl)ccc1O [drawing 309] | [drawing 309] |  |
| O=C(Nc1nc2ccc(C(F)(F)F)cc2s1)c1cc(Cl)ccc1O [drawing 312] | [drawing 312] |  |
| O=C(Nc1nc2ccc(C(F)(F)F)cc2s1)c1cc(Cl)ccc1O [drawing 315] | [drawing 315] |  |
| O=C(Nc1nc2ccc(C(F)(F)F)cc2s1)c1cc(Cl)ccc1O [drawing 318] | [drawing 318] |  |
| O=C(Nc1nc2ccc(C(F)(F)F)cc2s1)c1cc(Cl)ccc1O [drawing 321] | [drawing 321] |  |
| Cc1cc(Cl)cc(C(=O)Nc2nc3ccc(C(F)(F)F)cc3s2)c1O [drawing 324] | [drawing 324] |  |
| Cc1cc(Cl)cc(C(=O)Nc2nc3ccc(C(F)(F)F)cc3s2)c1O [drawing 327] | [drawing 327] |  |
| Cc1cc(Cl)cc(C(=O)Nc2nc3ccc(C(F)(F)F)cc3s2)c1O [drawing 330] | [drawing 330] |  |
| Cc1cc(Cl)cc(C(=O)Nc2nc3ccc(C(F)(F)F)cc3s2)c1O [drawing 333] | [drawing 333] |  |
| COCc1cc(C(F)(F)F)cc2sc(NC(=O)c3cc(Cl)cc(C)c3O)nc12 [drawing 336] | [drawing 336] |  |
| COCCOCc1cc(C(F)(F)F)cc2sc(NC(=O)c3cc(Cl)cc(C)c3O)nc12 [drawing 339] | [drawing 339] |  |
| COCCOCc1cc(C(F)(F)F)cc2sc(NC(=O)c3cc(Cl)cc(C)c3O)nc12 [drawing 342] | [drawing 342] |  |
| COCCOCc1cc(C(F)(F)F)cc2sc(NC(=O)c3cc(Cl)cc(C)c3O)nc12 [drawing 345] | [drawing 345] |  |
| COCCOCc1cc(C(F)(F)F)cc2sc(NC(=O)c3cc(Cl)cc(C)c3O)nc12 [drawing 348] | [drawing 348] |  |

Reference: patent US20260306502A1, “MITOCHONDRIAL UNCOUPLERS FOR TREATMENT OF METABOLIC DISEASES AND CANCER” (Mito Biopharma, LLC, priority 2022, published 2026)
